Laboratory results reported in patent publication EP0639380B1, “Cyclodextrin inclusion product of taxol, process for producing the same, and its use” (Ensuiko Sugar Refining Company, Limited, priority 1993, dated 1995).
Like-named read-outs stand apart in the source and are kept apart here.

What was measured:
[1] = 70 min
Protocol: 098 g of hydroxyethyl-β-CD in which, of 21 hydroxyl groups contained in one β -CD molecule, an average of 1.6 groups are substituted through an ether bond with a hydroxyethyl group (hereinafter referred to as HE-β-CD) or 0.090 g of hydroxypropyl-β-CD in which, of 21 hydroxyl groups contained in one β -CD molecule, an average of 0.9 groups are substituted through an ether bond with a hydroxypropyl group (hereinafter referred to as HP-β -CD), and the volume of each solution was adjusted to 10 ml to prepare aqueous CD solutions of a concentration of 6 mM.
To the solutions were added 2 mg each of taxol, and the resulting mixtures were stirred at room temperature (20 to 25°C) at 5,000 r.p.m. As a control, 2 mg of taxol were added to 10 ml of water, and the resulting mixture was stirred at room temperature (20 to 25°C) at 5,000 r.p.m. After 70 minutes of stirring, the solutions were passed through a filter of a pore diameter of 0. 45µm, and the concentration of taxol contained in the filtrates was determined by highperformance liquid chromatography (HPLC).
Then, 20 mg of taxol were added to the aqueous DM-β-CD solution, 2 mgof taxol to the aqueous HP-β-CD solution, and 1 mg each of taxol to the other aqueous CD solutions, and the resulting mixtures were stirred at room temperature (20 to 25°C) at 5,000 r.p.m. As a control, 1 mg of taxol was added to 10 ml of water, and the resulting mixture was stirred at room temperature (20 to 25°C) at 5,000 r.p.m. After 70 minutes of stirring, the solutions were passed through a filter with a pore diameter of 0.45µm, and the concentration of taxol contained in the filtrates was determined.

[2] = format: physicochemical
Protocol: Into 70 ml of a mixture of methanol and water (volume ratio, 1:1), the same volume of a mixture of acetonitrile and water (volume ratio, 1: 1), the same volume of a mixture of acetone and water (volume ratio, 1: 1) and the same volume of mixture of tetrahydrofuran and water (volume ratio, 1:1) were added 5 mg each of taxol. To the resulting taxol solutions were added 500 mg each of DM-β-CD, and the resulting mixtures were stirred vigorously by a stirrer at a temperature of 25°C. After two hours of stirring, 100 ml each of water were added thereto, and the resulting solutions were freeze-dried, so as to obtain powders by completely removing the water and the organic solvents. Then, 8 mg each of the thus-obtained powders were dissolved into 1 ml of water while stirring, and the resulting solutions were passed through a filter with a pore size of 0. 45µm, and the concentration of DM-β-CD and of the taxol contained in the filtrates was determined by HPLC. […]
Two taxol solutions were prepared by dissolving 5 mg each of taxol into 100 ml each of mixtures of methanol and water (volume ratio, 1:1). To these solutions were added 50 mg of HE-β-CD or HP-β-CD, and the resulting mixtures were vigorously stirred using a stirrer at 25°C. […]

Compound | Solubility of Taxol [1] [µ g/ml] | Solubilty of Taxol [1] [µ g/ml] | Solubility of Taxol [2] [µ g/ml]
6-mono-O-maltosyl-β-CD [G2-β-CD] | 0.5 | 23.0 | 
hydroxypropyl-β-CD [HP-β-CD] | 1.1 | 68.9 | 6.1
2, 6-di-O-methyl- β -CD [DM-β-CD] | 47.1 | 1236 | 
hydroxyethyl-β-CD [HE-β-CD] | 0.5 | 22.2 | 1.3
CC(=O)O[C@H]1C(=O)[C@@]2(C)[C@H]([C@H](OC(=O)c3ccccc3)[C@]3(O)C[C@H](OC(=O)[C@H](O)[C@@H](NC(=O)c4ccccc4)c4ccccc4)C(C)=C1C3(C)C)[C@]1(OC(C)=O)CO[C@@H]1C[C@@H]2O [CD not added (Control), taxol] | 0 |  | 
